Laboratory results published in patent US9707417B2, “Use of benzotropolone derivatives as UV absorbers and antioxidants and their use in sunscreens and/or cosmetic compositions” (BASF SE, priority 2008, dated 2017).
“Also recorded” adds a separate entry of the source.

What was measured:
[1] = UV shielding properties (UV spectra in ethanol); type: physicochemical; parameters: Absorption maximum 1 λmax / Absorption maximum 2 λmax: unit not given here; settings: for Absorption maximum 1 A^1%1 cm / Absorption maximum 1 λmax / Absorption maximum 2 A^1%1 cm / Absorption maximum 2 λmax: UV spectra in ethanol
From the text: The UV shielding properties of the benzotropolone derivatives were investigated by measuring their UV spectra in ethanol.
In the following table the investigated absorption maxima (λmax) together with the corresponding A^1%1cm values are listed.

[2] = Measurement of photostability (irradiation of highly diluted solution of the UV-filter, analysis by UV-spectroscopy); type: physicochemical; settings: for Half time: photostability, diluted solution in ethanol, first order kinetic model, half-life under conditions of COLIPA standard sun irradiation
Method: The method used for assessment of photostability is based on the irradiation of a highly diluted solution of the UV-filter.
The analysis after certain doses of irradiation is performed by UV-spectroscopy. The concentration of the UV-absorber in ethanol is adjusted to values between 1·10^−5 and 1·10^−6 mol/l, such that the absorbance of the solution in cuvette of 1 cm optical path length is ≦than 0.2. The mutual protection of filter molecules can be excluded under such conditions.
Prior to irradiation of a sample the UVB-intensity at the sample position is measured with a UV-radiometer (RM-12, Dr. Gröbel Electronic GmbH).
This radiometer is calibrated by comparison with a measurement of the spectral output of the metal halide lamp (including light guide and cut-off filter) using a wavelength-resolved radiometer (Gamma C11).
Therefore the relationship of the reading of the RM-12 radiometer and the corresponding spectral output of the lamp is known, and one is able to determine the wavelength-resolved intensities by measuring the UVB-intensity. By changing the distance between the end of the light guide and the cuvette, the UVB-intensity can be varied in the range of 100 μW/cm^2 and 4500 μW/cm^2.
For sample irradiation the highest possible intensity was used (4.5 mW/cm^2 UVB-intensity measured with the Macam 103 radiometer).
The irradiation time is varied from 0 to 180 min.
The dose the sample has received after 180 min corresponds to 60 MED.
During irradiation the sample was stirred. After certain intervals of irradiation, the samples were analyzed in a UV-spectrometer (Perkin Elmer, Lambda 16).
From the absorbance values at each dose of irradiation the concentration may be calculated using Lambert-Beer's law.
In order to get the half-life of the substance, a first order kinetic model was fitted to the experimental data. Since the UV-spectrum of the lamp and the UV-spectrum of the COLIPA standard sun are known, one can calculate the respective half-life of the UV-absorber under conditions of COLIPA standard sun irradiation [Bernd Herzog, Stefan Müller, Myriam Sohn, Uli Osterwalder, “New Insight and Prediction of Photostability of Sunscreens”, SÖFW Journal 133, 26-36 (2007)].

[3] = DPPH assay (antioxidative / antiradical activity); type: biochemical; settings: comparison with vitamin C, vitamin E, resveratrol
From the text: For tests of antioxidative activity, the DPPH assay is used. DPPH (2,2-Diphenyl-1-picryl-hydrazyl) is a stable radical, which absorbs in its radical form at 515 nm. Upon reduction by an antioxidant (AH), the absorption disappears: DPPH.+AH→DPPH—H+A. (1)
The rate of reaction (1) can be rather different for different antioxidants.
In the test, the ratio of the molar concentrations of the antioxidant and DPPH is varied (this ratio is named “EC”=efficient concentration), and the concentration of DPPH in the equilibrium state is measured for each ratio. […] The smaller the EC50 value, the more efficient is the antioxidant. Thus, the inverse, 1/EC50, can be used to quantify the antiradical power.
Solutions of DPPH and the antioxidants in ethanol are prepared separately and added together for starting the reaction (0.5 cm^3 of a 250 μM antioxidant solution is added to 2.5 cm^3 of a 100 μM DPPH solution). The absorption is measured using a Perkin Elmer Lambda 20 spectrophotometer.

Solubility in water = type: physicochemical

COC(=O)c1cc(O)c(=O)c2c(OC)c(O)c(OCCO)cc2c1 [Compound B-45]
Absorption maximum 1 A^1%1 cm [1]: 804
Absorption maximum 1 λmax [1]: 306
Absorption maximum 2 A^1%1 cm [1]: 302
Absorption maximum 2 λmax [1]: 401

CCCCCCCCOC(=O)c1cc(O)c(=O)c2c(O)c(O)c(C)cc2c1 [Compound B-34]
Absorption maximum 1 A^1%1 cm [1]: 748
Absorption maximum 1 λmax [1]: 282
Absorption maximum 2 A^1%1 cm [1]: 333
Absorption maximum 2 λmax [1]: 398

CCCCc1ccc2c(CCCC)c(O)c(O)c(O)c2c(=O)c1O [Compound B-55]
Absorption maximum 1 A^1%1 cm [1]: 788
Absorption maximum 1 λmax [1]: 311

COC(=O)c1cc(O)c(=O)c2c(O)c(O)c(O[C@@H]3O[C@H](COC(C)=O)[C@H](OC(C)=O)[C@H](OC(C)=O)[C@H]3OC(C)=O)cc2c1 [Compound B-37]
Absorption maximum 1 A^1%1 cm [1]: 394
Absorption maximum 1 λmax [1]: 285
Absorption maximum 2 A^1%1 cm [1]: 88
Absorption maximum 2 λmax [1]: 393

Cc1cc2cc(CO)cc(O)c(=O)c2c(O)c1O [Compound B-61]
Absorption maximum 1 A^1%1 cm [1]: 711
Absorption maximum 1 λmax [1]: 295

COC(=O)c1cc(O)c(=O)c2c(O)c(O)c(OCCCCCC(=O)O)cc2c1 [Compound B-15]
Absorption maximum 1 A^1%1 cm [1]: 754
Absorption maximum 1 λmax [1]: 310
Absorption maximum 2 A^1%1 cm [1]: 269
Absorption maximum 2 λmax [1]: 398

COC(=O)c1cc(O)c(=O)c2c(O)c(O)c(O[C@@H]3O[C@H](CO)[C@H](O)[C@H](O)[C@H]3O)cc2c1 [Compound B-16]
Absorption maximum 1 A^1%1 cm [1]: 550
Absorption maximum 1 λmax [1]: 288
Absorption maximum 2 A^1%1 cm [1]: 204
Absorption maximum 2 λmax [1]: 397

O=C(O)c1cc(O)c(=O)c2c(O)c(O)c(O[C@@H]3O[C@H](CO)[C@@H](O)[C@H](O)[C@H]3O)cc2c1 [Compound B-59]
Absorption maximum 1 A^1%1 cm [1]: 497
Absorption maximum 1 λmax [1]: 300
Absorption maximum 2 A^1%1 cm [1]: 174
Absorption maximum 2 λmax [1]: 388

COC(=O)c1cc(O)c(=O)c2c(O)c(O)cc(CCO)c2c1 [Compound B-52]
Absorption maximum 1 A^1%1 cm [1]: 437
Absorption maximum 1 λmax [1]: 280
Absorption maximum 2 A^1%1 cm [1]: 176
Absorption maximum 2 λmax [1]: 399

CCc1ccc2c(CC)c(O)c(O)c(O)c2c(=O)c1O [Compound B-54]
Absorption maximum 1 A^1%1 cm [1]: 1142
Absorption maximum 1 λmax [1]: 309

O=C(O)CCCCCOc1cc2cc(C(=O)O)cc(O)c(=O)c2c(O)c1O [Compound B-19]
photostability (in words) [2]: high photostability
Half time [2]: 40.1 h
Absorption maximum 1 A^1%1 cm [1]: 726
Absorption maximum 1 λmax [1]: 308
Absorption maximum 2 A^1%1 cm [1]: 236
Absorption maximum 2 λmax [1]: 397

CCCCCCCCCCCCOc1cc2cc(C(=O)OCCCCCCCC)cc(O)c(=O)c2c(O)c1O [Compound B-33]
Absorption maximum 1 A^1%1 cm [1]: 575
Absorption maximum 1 λmax [1]: 310
Absorption maximum 2 A^1%1 cm [1]: 210
Absorption maximum 2 λmax [1]: 403

O=C(O)c1cc(O)c(=O)c2c(O)c(O)ccc2c1 [Compound B-2]
photostability (in words) [2]: high photostability
Half time [2]: 33.6 h
shielding properties in the UV region (in words) [1]: high shielding properties in the UV region; also recorded: UV-C/UV-B shielding properties as well as UV-A shielding properties
Absorption maximum 1 A^1%1 cm [1]: 966
Absorption maximum 1 λmax [1]: 276
Absorption maximum 2 A^1%1 cm [1]: 460
Absorption maximum 2 λmax [1]: 400

COC(=O)c1cc(O)c(=O)c2c(O)c(O)ccc2c1 [Compound B-3]
photostability (in words) [2]: extraordinary high inherent photostability
Half time [2]: 61.9 h
shielding properties in the UV region (in words) [1]: high shielding properties in the UV region; also recorded: UV-C/UV-B shielding properties as well as UV-A shielding properties
Absorption maximum 1 A^1%1 cm [1]: 1007
Absorption maximum 1 λmax [1]: 277
Absorption maximum 2 A^1%1 cm [1]: 516
Absorption maximum 2 λmax [1]: 395

O=c1c(O)cccc2cc(O)c(O)c(O)c12 [Compound B-1]
photostability (in words) [2]: high photostability
Half time [2]: 31.5 h
shielding properties in the UV region (in words) [1]: high shielding properties in the UV region; also recorded: high absorption in the UV-C and UV-B region
Absorption maximum 1 A^1%1 cm [1]: 935
Absorption maximum 1 λmax [1]: 281
Absorption maximum 2 A^1%1 cm [1]: 1179
Absorption maximum 2 λmax [1]: 305

COc1cc2cc(C(=O)O)cc(O)c(=O)c2c(O)c1O [Compound B-4]
photostability (in words) [2]: high photostability
Half time [2]: 16.6 h
shielding properties in the UV region (in words) [1]: high shielding properties in the UV region; also recorded: UV-C/UV-B shielding properties as well as UV-A shielding properties
Absorption maximum 1 A^1%1 cm [1]: 864
Absorption maximum 1 λmax [1]: 307
Absorption maximum 2 A^1%1 cm [1]: 305
Absorption maximum 2 λmax [1]: 396

COC(=O)c1cc(O)c(=O)c2c(O)c(O)cc(CCC(=O)O)c2c1 [Compound B-62]
Absorption maximum 1 A^1%1 cm [1]: 799
Absorption maximum 1 λmax [1]: 281
Absorption maximum 2 A^1%1 cm [1]: 383
Absorption maximum 2 λmax [1]: 406

Cc1cc2cc(C(=O)O)cc(O)c(=O)c2c(O)c1O [Compound B-31]
Absorption maximum 1 A^1%1 cm [1]: 1065
Absorption maximum 1 λmax [1]: 281
Absorption maximum 2 A^1%1 cm [1]: 477
Absorption maximum 2 λmax [1]: 393

COC(=O)c1cc(O)c(=O)c2c(O)c(O)c(C)cc2c1 [Compound B-6]
shielding properties in the UV region (in words) [1]: high shielding properties in the UV region; also recorded: UV-C/UV-B shielding properties as well as UV-A shielding properties
Absorption maximum 1 A^1%1 cm [1]: 997
Absorption maximum 1 λmax [1]: 280
Absorption maximum 2 A^1%1 cm [1]: 447
Absorption maximum 2 λmax [1]: 396

COC(=O)c1cc(O)c(=O)c2c(O)c(O)c(O[C@@H]3O[C@H](CO)[C@@H](O)[C@H](O)[C@H]3O)cc2c1 [Compound B-7]
Absorption maximum 1 A^1%1 cm [1]: 593
Absorption maximum 1 λmax [1]: 287
Absorption maximum 2 A^1%1 cm [1]: 246
Absorption maximum 2 λmax [1]: 399

COc1cc2cc(CO)cc(O)c(=O)c2c(O)c1O [Compound B-50]
Absorption maximum 1 A^1%1 cm [1]: 1027
Absorption maximum 1 λmax [1]: 305

CCCCCCCCCCCCOc1cc2cc(C(=O)OC)cc(O)c(=O)c2c(O)c1O [Compound B-35]
Absorption maximum 1 A^1%1 cm [1]: 611
Absorption maximum 1 λmax [1]: 310
Absorption maximum 2 A^1%1 cm [1]: 231
Absorption maximum 2 λmax [1]: 404

CCCCCCCC/C=C\CCCCCCCCOc1cc2cc(C(=O)OC)cc(O)c(=O)c2c(O)c1O [Compound B-32]
photostability (in words) [2]: high photostability
Half time [2]: 16.6 h
Absorption maximum 1 A^1%1 cm [1]: 574
Absorption maximum 1 λmax [1]: 310
Absorption maximum 2 A^1%1 cm [1]: 203
Absorption maximum 2 λmax [1]: 404

COC(=O)c1cc(O)c(=O)c2c(O)c(O)c(OCCCO[C@@H]3O[C@H](CO)[C@@H](O)[C@H](O)[C@H]3O)cc2c1 [Compound B-13]
antioxidant/radical scavenging power compared to state-of-the-art antioxidants (in words) [3]: more effective in the DPPH assay than the state-of-the-art antioxidant resveratrol
photostability (in words) [2]: high photostability
Half time [2]: 51.3 h
Absorption maximum 1 A^1%1 cm [1]: 573
Absorption maximum 1 λmax [1]: 310
Absorption maximum 2 A^1%1 cm [1]: 208
Absorption maximum 2 λmax [1]: 404
Solubility in water (Solubility in water): 10.467%

COC(=O)c1cc(O)c(=O)c2c(O)c(O)c(OC)cc2c1 [Compound B-5]
photostability (in words) [2]: extraordinary high inherent photostability
Half time [2]: 116.5 h
shielding properties in the UV region (in words) [1]: high shielding properties in the UV region; also recorded: UV-C/UV-B shielding properties as well as UV-A shielding properties
Absorption maximum 1 A^1%1 cm [1]: 1008
Absorption maximum 1 λmax [1]: 308
Absorption maximum 2 A^1%1 cm [1]: 399
Absorption maximum 2 λmax [1]: 403

Cc1cc2cc(C(=O)NCCCCP(=O)(O)O)cc(O)c(=O)c2c(O)c1O [Compound B-49]
Absorption maximum 1 A^1%1 cm [1]: 601
Absorption maximum 1 λmax [1]: 278
Absorption maximum 2 A^1%1 cm [1]: 270
Absorption maximum 2 λmax [1]: 381

CCOC(=O)CCCCCOc1cc2cc(C(=O)O)cc(O)c(=O)c2c(O)c1O [Compound B-36]
photostability (in words) [2]: high photostability
Half time [2]: 22.8 h
Absorption maximum 1 A^1%1 cm [1]: 750
Absorption maximum 1 λmax [1]: 309
Absorption maximum 2 A^1%1 cm [1]: 250
Absorption maximum 2 λmax [1]: 398

CCCCCCCCCCCCOC(=O)c1cc(O)c(=O)c2c(O)c(O)c(OCCCCCCCCCCCC)cc2c1 [Compound B-53]
Absorption maximum 1 A^1%1 cm [1]: 533
Absorption maximum 1 λmax [1]: 309
Absorption maximum 2 A^1%1 cm [1]: 193
Absorption maximum 2 λmax [1]: 402
